Reference: the NIST ThermoML archive (doi:10.1021/je400408w)

Test: molar heat capacity at constant pressure; xn = mol fraction of the nth substance listed
Conditions: 100 kPa, Liquid

Cc1ccc(Cl)cc1 [4-chlorotoluene] + O=C1CCCN1
molar heat capacity at constant pressure [J/K/mol]
Conditions | 293.15 K | 298.15 K | 303.15 K
x2 = 0 | 175.66 | 177.95 | 180.37
x2 = 0.0386 | 175.99 | 178.08 | 180.47
x2 = 0.0724 | 176.3 | 178.23 | 180.58
x2 = 0.1123 | 176.65 | 178.52 | 180.66
x2 = 0.1526 | 177.03 | 178.78 | 180.84
x2 = 0.1926 | 177.35 | 179.04 | 180.93
x2 = 0.2317 | 177.67 | 179.22 | 181.06
x2 = 0.2725 | 177.98 | 179.48 | 181.12
x2 = 0.3126 | 178.18 | 179.64 | 181.1
x2 = 0.3516 | 178.38 | 179.7 | 181.14
x2 = 0.3916 | 178.43 | 179.77 | 181.06
x2 = 0.4332 | 178.43 | 179.72 | 180.88
x2 = 0.4753 | 178.35 | 179.67 | 180.61
x2 = 0.5121 | 178.24 | 179.47 | 180.38
x2 = 0.5512 | 177.97 | 179.17 | 180.03
x2 = 0.5925 | 177.61 | 178.79 | 179.53
x2 = 0.6325 | 177.15 | 178.25 | 179.05
x2 = 0.6715 | 176.58 | 177.74 | 178.48
x2 = 0.7122 | 175.92 | 176.99 | 177.81
x2 = 0.7534 | 175.18 | 176.18 | 177
x2 = 0.7921 | 174.31 | 175.32 | 176.22
x2 = 0.8324 | 173.32 | 174.4 | 175.34
x2 = 0.8731 | 172.28 | 173.34 | 174.46
x2 = 0.9123 | 171.14 | 172.21 | 173.5
x2 = 0.9543 | 169.86 | 171 | 172.43

Cc1ccccc1Cl [2-chlorotoluene] + O=C1CCCN1
molar heat capacity at constant pressure [J/K/mol]
Conditions | 293.15 K | 298.15 K | 303.15 K
x2 = 0 | 176.43 | 178.21 | 180.01
x2 = 0.0426 | 177.32 | 179.22 | 181.34
x2 = 0.0815 | 178.2 | 180.1 | 182.4
x2 = 0.1243 | 179.12 | 181.15 | 183.61
x2 = 0.1654 | 180 | 182.08 | 184.67
x2 = 0.2067 | 180.7 | 182.94 | 185.64
x2 = 0.2432 | 181.17 | 183.62 | 186.37
x2 = 0.2851 | 181.73 | 184.27 | 186.97
x2 = 0.3215 | 182.2 | 184.63 | 187.49
x2 = 0.3645 | 182.46 | 184.96 | 187.88
x2 = 0.4088 | 182.43 | 185.2 | 188.02
x2 = 0.4426 | 182.43 | 185.07 | 187.93
x2 = 0.4854 | 182.08 | 184.93 | 187.72
x2 = 0.5231 | 181.74 | 184.55 | 187.37
x2 = 0.5612 | 181.22 | 183.98 | 186.88
x2 = 0.5987 | 180.54 | 183.29 | 186.2
x2 = 0.6316 | 179.75 | 182.48 | 185.46
x2 = 0.6724 | 178.85 | 181.51 | 184.4
x2 = 0.7143 | 177.56 | 180.26 | 183.11
x2 = 0.7543 | 176.48 | 178.86 | 181.78
x2 = 0.796 | 175.15 | 177.45 | 180.2
x2 = 0.8342 | 173.85 | 176.13 | 178.66
x2 = 0.8724 | 172.53 | 174.47 | 177.02
x2 = 0.9088 | 171.32 | 173.04 | 175.4
x2 = 0.9426 | 170.19 | 171.72 | 173.87

CN1CCCC1=O [N-methylpyrrolidone] + Cc1ccccc1Cl
x1 = 1
Conditions | molar heat capacity at constant pressure [J/K/mol]
293.15 K | 165.44
298.15 K | 166.22
303.15 K | 166.92

O=C1CCCN1 [2-pyrrolidinone] + Cc1ccc(Cl)cc1
x1 = 1
Conditions | molar heat capacity at constant pressure [J/K/mol]
293.15 K | 168.36
298.15 K | 169.55
303.15 K | 171.18

Cc1cccc(Cl)c1 [3-chlorotoluene] + O=C1CCCN1
molar heat capacity at constant pressure [J/K/mol]
Conditions | 293.15 K | 298.15 K | 303.15 K
x2 = 0 | 175.21 | 176.46 | 177.67
x2 = 0.0398 | 175.59 | 176.89 | 178.18
x2 = 0.0798 | 176.05 | 177.3 | 178.65
x2 = 0.1089 | 176.37 | 177.6 | 179.06
x2 = 0.1443 | 176.74 | 178.08 | 179.55
x2 = 0.1853 | 177.1 | 178.48 | 179.99
x2 = 0.2234 | 177.49 | 178.84 | 180.42
x2 = 0.2613 | 177.74 | 179.25 | 180.77
x2 = 0.3095 | 178.12 | 179.52 | 181.15
x2 = 0.3452 | 178.21 | 179.69 | 181.37
x2 = 0.3865 | 178.3 | 179.9 | 181.5
x2 = 0.4432 | 178.35 | 179.92 | 181.58
x2 = 0.4836 | 178.22 | 179.73 | 181.43
x2 = 0.5213 | 177.98 | 179.53 | 181.21
x2 = 0.5643 | 177.56 | 179.17 | 180.87
x2 = 0.6074 | 177.17 | 178.68 | 180.45
x2 = 0.6408 | 176.64 | 178.24 | 179.95
x2 = 0.6853 | 175.94 | 177.56 | 179.23
x2 = 0.7214 | 175.28 | 176.81 | 178.55
x2 = 0.7654 | 174.4 | 175.89 | 177.62
x2 = 0.8069 | 173.44 | 174.91 | 176.65
x2 = 0.8453 | 172.56 | 173.94 | 175.71
x2 = 0.8812 | 171.61 | 172.99 | 174.68
x2 = 0.9203 | 170.57 | 171.93 | 173.57
x2 = 0.9564 | 169.6 | 170.88 | 172.55
